Assay results taken from patent US11413239B2, “Pharmaceutical composition of tapentadol for nasal administration” (Torrent Pharmaceuticals Ltd., priority 2011, dated 2022).

Tests used:
[1] = cited from earlier work
[2] = Crystal formation in concentrated tapentadol solution on storage; type: physicochemical; conditions: increased concentration of tapentadol in solution, stored for more than 3 days
Description: This makes the formulation non-homogeneous and therefore non-suitable for nasal administration. This crystal growth may further leads to altered therapeutic effect of the drug. Present invention overcomes this problem by providing a composition, wherein no such crystal growth is observed in the composition comprising high concentration of drug, when stored for longer duration.

CC[C@@H](c1cccc(O)c1)[C@@H](C)CN(C)C.Cl [Tapentadol, 3-[(1R,2R)-3-(dimethylamino)-1-ethyl-2-methylpropyl]phenol]
clearance ([1]; Eur. J. Drug Met and Pharmacokinetics 2007, 32, 163-169): 1468.+−.122 mL/min | time of maximum serum concentration ([1]; after oral dosing): around 1.25 hours | parent compound metabolized ([1]; given orally): About 97% | time to absorb after administration ([1]; oral formulations): at least 45 minutes | crystal formation on storage [2]: formation of crystals
